From patent US4876265A, “Process and compositions for controlling mites parasitizing on honey bees” (priority 1983, dated 1989)

Tests used:
Varroa jacobsoni [1] = assay: Comparative test, lethal dosage for varroa mites; assay type: in vivo; details: for LD50 in μg active ingredient/bee: oral, 10 μl sucrose suspension
Text: Compounds (I), (A) and (B) are formulated in accordance with Example F-1.
The age distribution of the bees in the test group is identical with that in a normal hive. The bees used in the laboratory tests originate from colonies only slightly infested with nosema. All groups of bees are infected with varroatosis (Varroa jacobsoni). To test the tolerance by the bees and the acaricidal activity in the group, 40 bees from the same colony are placed with their brood in each cage. To achieve a better control, each cage is fitted with a pane of glass. A small piece of honeycomb (6×8 cm) is attached at the top of each cage to pacify the bees. During the test period, the bees are kept in a climatic chamber at 25° C. and 85% relative humidity. These conditions are chosen because they are maximally acceptable both for the mites and the bees: the parasitizing mites are least affected and the bees live sufficiently long. To test the systemic activity of the active substance, 4 bees--within a group of 40 bees--are each individually fed with 10 μl of a suspension of the active substance in a 50% aqueous solution of sucrose. The bees have not been fed for at least one hour so that feed with a higher dose can be more readily ingested. 3 to 4 doses are tested in each of 2 groups. In each test series, 2 groups are left untreated as controls.
24 and 48 hours after treatment, the activity on varroa mites is determined on the basis of mite mortality. For this purpose a tray (mesh width=2.4 mm) is fixed above the floor of each of the test cages. The mites which have dropped off the bees can thus be collected on paper which had been placed under the tray. 72 hours after treatment, the bees are sacrificed and then washed in benzine to determine the number of mites which have remained on them (method of determining the number of remaining mites according to Ritter, Apidologie, 1980, 11(2), 131-141).
Percentage mite mortality can be determined from the number of mites which have remained on the bees and the number which have dropped off. Using the Probit analysis (Cavalli-Sforza, Biometrie, G. Frischer Verlag, Stuttgart), the LD50 can be determined from the dosage-mortality curve.

honey-bee colonies = assay: Honey-bee colonies in northeastern Mexico, bee population; assay type: in vivo; details: end of the test; P<0.05
Procedure: (§1) Three groups of honey-bee colonies (N=30) located in northeastern Mexico are selected on the basis of the prevalence of Acarapis woodi parasitizing their workers. Lightly (≤10%), moderately (20-60%), and heavily (90-100%) infested colonies are randomly assigned to control or treated subgroups (N=15). Controls receive 50% sucrose syrup, and treated colonies receive syrup medicated with 0.3 mg/ml 2-(2,4-dimethylphenylimino)-3-methyl-4-thiazoline-hydrochloride, small, medium, and large colonies receive 300, 600, and 1000 ml of syrup, respectively. Syrup is fed three times at weekly intervals.

Acarapis woodi [2] = assay: Package bee colonies infested with Acarapis woodi, mite survival; assay type: in vivo
Procedure: (§2) Forty-two packages of honey bees (2 lbs.~907 g) are obtained from 22 colonies infested with Acarapis woodi. Infestations range from 60 to 100%. Each package is provided with a mated queen and 550 ml of treated or untreated 50% (wt/wt) sucrose syrup. All treated colonies receive syrup containing either 0.5 mg/ml (group B) or 1.0 mg/ml (group C) of 2-(2,4-dimethylphenylimino)-3-methyl-4-thiazoline hydrochloride. The control (group A) consists of 10 packages of bees and the treatment groups B and C of 16 packages each.
(§3) After installation on frames free of nectar and pollen, package colonies are examined at weekly intervals to determine food consumption, brood production and bee mortality. Random samples of ten bees/colony are examined on days 5, 12, 19, 26, 33 and 40. On day 0 and 5 bees are examined. Dissections and live mite determinations are made according to Eischen et al. (Am. Bee J. 127: 99-101, 1987).

Acarapis woodi [3] = assay: Honey-bee colonies in northeastern Mexico, parasite load; assay type: in vivo; details: 0.3 mg/ml in syrup, three times weekly, P<0.05
Procedure: as §1

honey bees = assay: Package bee colonies, brood production and food consumption; assay type: in vivo, honey bee; details: 0.5 mg/ml and 1.0 mg/ml; more pronounced at the higher concentration
Procedure: as §2, §3

varroa mites [4] = assay: Wetting method in the beehive, mites killed; assay type: in vivo; details: 0.5% aqueous solution, 5 ml dropped, three times at 4-day intervals; 12 days
Procedure: (§4) Six brood-less nuclei [small, manmade colonies of bees with usually 1000 to perhaps 5000 bees; see Morse and Hooper (1985), supra, Nucleus colony, p. 279] infested with varroa mites are treated three times, at intervals of 4 days, with a 0.5% aqueous solution of 2-(2,4-dimethylphenylimino)-3-methylthiazoline. The active substance is dissolved in the form of a concentrate formulation in water. 5 ml of the active substance solution are dropped onto a number of bees present in the bee ways of a beehive. The test is terminated 4 days after the last treatment, that is after a duration of 12 days. The mites and bees which have died in the course of the test are collected on a bottom tray covered with gauze, which has been inserted under the combs before commencement of the test. At the end of the test, the bees are killed, and the mites remaining on them are washed out in benzine and counted. For the evaluation, the number of dead mites and bees collected during the test is determined, the fact being taken into consideration that for the length of time of the test a natural mortality rate of about 0.5% of bees is to be expected.

bees [5] = assay: Tests under natural conditions, bee mortality rate; assay type: in vivo, honey bee; details: overall; in the range of the untreated control group; 30240 min
Text: 33 brood-less bee colonies (~20,000 bees) infested with varroa mites are divided into three groups and treated with 2-(2,4-dimethylphenylimino)-3-methylthiazoline in solutions of varying concentration, originating in one case from a 15% emulsion concentrate (EC-15) and in the other case from a 15% water-soluble powder (SP-15). In the latter case, the active ingredient I is in the form of a salt (cf. Formulation Examples).
All three groups A, B and C, each consisting of 11 colonies, receive during the time of treatment the same total amount of active ingredient.
In the following the applied amounts per bee way are given. Depending on the size of the bee colony, a beehive contains between 5 and 15 bee ways, so that the amount of active ingredient applied is correspondingly adjusted from hive to hive.
In each case 5 ml of a 4% aqueous solution or emulsion per bee way are sprayed onto a number of selected bees. The remaining bees provide for a uniform distribution of the active ingredient in the colony. The partial wetting procedure is repeated after 7 days and after 14 days (observation period 21 days). […]
The mites and bees that have died during and after the treatment are collected daily from a bottom tray. 21 days after the first application, the bee colonies are killed and the remaining number of mites is then determined (observation period 21 days).

Tropilaelaps clareae = details: Thailand, 10 colonies each, four products; dose rates proposed for Varroa-mite-treatment; cited from earlier work
bees [6] = assay: Wetting method in the beehive, bees killed (tolerability); assay type: in vivo, honey bee
Procedure: as §4

Varroa jacobsoni [7] = details: Thailand, 10 colonies each, four products; manufacturers' dose rates for Varroa-mite-treatment; cited from earlier work
varroa mites [8] = assay: Feeding method in the laboratory, varroa mite mortality; assay type: in vivo; details: 7 days
Procedure: Thirty bees infested with varroa mites are each individually fed with 10 μl of a sugar-containing solution of 2-(2,4-dimethylphenylimino)-3-methylthiazoline. […] After being fed, the bees are kept in groups each of 10 for 7 days in cages. The mites which in the course of the test have fallen off dead are collected in trays placed under the individual cages. The bees are subsequently killed and are examined for remaining mites. The counting of the mites that have fallen down and those remaining on the bees is carried out after 7 days.

## CCn1ccsc1=Nc1ccc(C)cc1C [Compound (A)]
Varroa jacobsoni [1]; 24 hours after application
  LD50 in μg active ingredient/bee: 35 μg active ingredient/bee
Varroa jacobsoni [1]; 48 hours after application
  LD50 in μg active ingredient/bee: 35 μg active ingredient/bee

## Cc1ccc(N=c2sccn2C)c(C)c1.Cl [2-(2,4-dimethylphenylimino)-3-methyl-4-thiazoline hydrochloride]
honey-bee colonies
  bee population of medicated colonies versus controls: significantly larger bee populations than controls
Acarapis woodi [2]; 0.5 mg/ml and 1.0 mg/ml in syrup
  time at which efficacy is apparent: 7 days
Acarapis woodi [2]; after 26 days
  control of mites: almost complete control of mites
Acarapis woodi [2]; groups B (0.5 mg/ml) and C (1.0 mg/ml) in syrup, after 14 days
  Mite survival: less than 1 live mite/trachea
Acarapis woodi [2]; groups B (0.5 mg/ml) and C (1.0 mg/ml), after 26 days
  live mites found in the tracheae of treated package bees: no live mites
Acarapis woodi [3]; heavily infested (90-100%), control 1.13
  parasite load score: 0.63
Acarapis woodi [3]; lightly infested (≤10%), control 2.25
  parasite load score: 0.53
Acarapis woodi [3]; moderately infested (20-60%), control 3.43
  parasite load score: 0.84
Honey bees
  effect on honey bee larvae (spotty brood patterns): detrimental to some honey bee larvae as spotty brood patterns are observed in several colonies

## Cc1ccc(N=c2sccn2C)c(C)c1 [Compound (I), 2-(2,4-dimethylphenylimino)-3-methylthiazoline]
Varroa mites [4]
  Killed organisms in %: mites: 91.8%
Bees [5]
  mortality of the treated bees: about 1%
Tropilaelaps clareae
  comparative efficacy against Tropilaelaps clareae: best product against both mites
Bees [6]; 0.5% aqueous solution, 5 ml dropped, three times at 4-day intervals, 12 days, natural mortality about 0.5% expected
  Killed organisms in %: bees: 0.4%
Bees [6]; compared with expected range and untreated control group
  mortality of the bees during the test: exactly within the expected range and does not differ from the mortality of the untreated control group
Varroa jacobsoni [7]
  comparative efficacy against Varroa jacobsoni: best product against both mites
Varroa jacobsoni [1]; 24 hours after application
  LD50 in μg active ingredient/bee: 17 μg active ingredient/bee
Varroa jacobsoni [1]; 48 hours after application
  LD50 in μg active ingredient/bee: 13 μg active ingredient/bee
Varroa jacobsoni [1]; varroacidal test
  activity against varroa mites versus compounds (A) and (B): significantly better activity against varroa mites
Varroa mites [8]; 10 μl sugar solution fed per bee, 30 bees, total mites 35
  Fallen mites: 34
Varroa mites [8]; 10 μl sugar solution fed per bee
  Mortality rate in % (mites): 97%
Varroa mites [8]; feeding method in the laboratory
  killing of parasitizing mites: killing nearly all of the parasitizing mites

## Cc1cccc(C)c1N=c1sccn1C [Compound (B)]
Varroa jacobsoni [1]; 24 hours after application
  LD50 in μg active ingredient/bee: 28 μg active ingredient/bee
Varroa jacobsoni [1]; 48 hours after application
  LD50 in μg active ingredient/bee: 28 μg active ingredient/bee
